Measured values as given in patent US20090074740A1, “Use of haptoglobin genotyping in diagnosis and treatment of defective reverse cholesterol transport (RCT)” (priority 2007, published 2009).
“And” between values parts separate entries of the source, which are not always exact repeats. Equal values may be shown once. “Also recorded” adds a separate entry of the source.

Key:
[1] = per 1 mg, National Formulary; cited from earlier work
HDL associated lipids = experiment: Measurement of HDL-associated lipid peroxides; type: biochemical, human; settings: Hb 1 umol/L, 100 ug HDL
Experimental: Measurement of HDL-Associated Lipid Peroxides. Glycosylated or nonglycosylated Hb (1 umol/L) was incubated with 100 ug of HDL and 20 umol/L ascorbic acid in PBS with or without Hp1-1 or Hp2-2 (equimolar to Hb) for 3 hours at 37° C. Lipid peroxides were measured as previously described.

J774 macrophage cells = experiment: HDL-mediated cholesterol efflux from J774 cells incubated with purified HDL, native or glycated Hb and Hp; type: cell-based, murine; settings: efflux with purified HDL taken as 100%; 0.8 umol/L; 3-hour incubation
Experimental: Cell Culture. J774 A.1 murine macrophage cells were purchased from the American Type Culture Collection (Manassas, Va.) and grown in DMEM supplemented with 5% FBS.
Cholesterol Efflux From Macrophages. Murine J774 cells (1×10^6/mL) were plated in 24-well plates for 48 hours, then washed and incubated in DMEM without serum containing ^3H-cholesterol (2 uCi/mL) for 1 hour. Cells were washed to remove unincorporated label and then incubated in 1 mL of DMEM supplemented with: (1) nothing (negative control); (2) purified HDL (100 ug/mL protein) (positive control); or (3) 30 uL of serum from individuals with or without DM with the different Hp genotypes. In studies using purified Hp and Hb rather than serum, the cells were incubated with purified HDL ([…] protein) with different combinations of native Hb, glycated Hb, Hp1-1, and Hp2-2 (all at 0.8 umol/L).
After a 3-hour incubation at 37° C. to permit efflux of ^3H-cholesterol from the cells into the medium, 500 uL of the medium was collected, the cells washed with PBS, and 0.1 N NaOH added to the cells. Cellular and medium ^3H-cholesterol were determined by liquid scintillation counting (LSC). The percentage of cholesterol efflux was calculated as the ratio of total counts per minute in the medium divided by the total counts per minute in the medium and in the cells. HDL-mediated cholesterol efflux (resulting from purified HDL or HDL found in the serum) was calculated after subtraction of the nonspecific efflux obtained in cells incubated in the absence of purified HDL or serum. Results reported for efflux elicited by serum samples are normalized for the serum HDL concentration derived as (measured efflux)(measured HDL in mg/dL)/50.

[2] = Glucose control and lipid profile in Hp 2-2 DM mice given vitamin E; type: in vivo; settings: 40 mg/kg/day
From the text: (§1) Hp transgenic mice and veneration of DM. All protocols were approved by the Animal Care and Use Committee of the Technion. […]. The characterization and generation of Hp 1 and Hp 2 mice in a C57B1/6 genetic background has previously been described in detail. Briefly, the murine Hp 1 allele is the wild type murine Hp allele. The Hp 2 allele exists only in man and a murine Hp 2 allele was genetically engineered in vitro and its insertion targeted at the Hp locus by homologous recombination. […] Diabetes was generated in these mice at 8 weeks of age using a low dose streptozotocin protocol (NIH Funded Consortium on Animal Models of Diabetic Complications protocol available on the consortium web site www.amdcc.org) and confirmed by measuring plasma glucose. Mice were diabetic for at least 1 month prior to analysis.
(§2) Vitamin E (racemic, alpha-tocopherol acetate, Merck) was administered to a subset of the Hp 2-2 DM mice at a dose of 40 mg/kg/day beginning three weeks after the induction of DM.

J774 macrophages = experiment: Cholesterol efflux from J774 macrophages elicited by serum from Hp 2-2 DM mice treated with vitamin E; type: in vivo; settings: 40 mg/kg/day beginning three weeks after induction of DM, serum on J774 cells
From the text: as §1, §2

[3] = ICARE study: vitamin E versus placebo in Hp 2-2 Type II DM individuals (MI, stroke, CVD death); type: in vivo, human
From the text: The study protocol of the ICARE study involves the following: participants were drawn from 47 primary health clinics of the Clalit Health Services in the northern sector of Israel. Patients were eligible for the study if they had Type II DM and were 55 years of age or older. […] These Hp 2-2 individuals were randomly assigned to treatment with either vitamin E or placebo. The major study outcomes (MI, stroke, CVD death) were identified prospectively in this population over an 18 month period. A preplanned secondary analysis of ICARE was to assess the ability of vitamin E therapy to influence outcomes in those ICARE participants who were also taking statins. Statin use as prospectively defined in ICARE was based on the use of statins by the participant in at least eight of the twelve months preceding enrollment of the participant in the study. The decision to use statins for a particular participant was under the discretion of the patient's primary care physician and was in no way influenced by the patient's participation in the ICARE study.
Robust clinical data has shown that individuals homozygous for the Hp 2 allele (Hp 2-2 genotype), 40% of DM individuals, have an up to 500% increased risk of CVD (21-24). A vast amount of basic science, animal and epidemiological data has provided the logic for targeting vitamin E administration specifically to DM individuals with the Hp 2-2 genotype. In the ICARE study (Israel CArdiovascular events Reduction with vitamin E (ClinicalTrials.gov# NCT00220831)) a prospective randomized placebo controlled trial of vitamin E therapy in DM individuals with the Hp 2-2 genotype, is was shown that vitamin E therapy results in a 50% reduction in CVD events. However, only about half of the Hp 2-2 DM participants in ICARE received statin therapy.

For `CC(=O)Oc1c(C)c(C)c2c(c1C)CCC(C)(CCCC(C)CCCC(C)CCCC(C)C)O2` (racemic) [all-rac-α-tocopherol acetate], the “specific activity of 1 mg” value [1] is given as 1.00 IU.

For `Cc1c(C)c2c(c(C)c1O)CC[C@@](C)(CCC[C@H](C)CCC[C@H](C)CCCC(C)C)O2` [RRR-.alpha-tocopherol], the “specific activity of 1 mg” value [1] is given as 1.49 IU.

For `CC(=O)Oc1c(C)c(C)c2c(c1C)CC[C@@](C)(CCC[C@H](C)CCC[C@H](C)CCCC(C)C)O2` [RRR-.alpha-tocopherol acetate], the “specific activity of 1 mg” value [1] is given as 1.36 IU.

In the case of “native Hb: Native hemoglobin isolated from fresh human blood”, the “increase in HDL-associated lipid peroxides” value (HDL associated lipids; 3 hours) is reported as “no increase” and the “effect on HDL-mediated efflux of 3H-cholesterol” value (J774 macrophage cells) is reported as “did not cause any reduction; also recorded: no effect”.

For `CC(=O)Oc1c(C)c(C)c2c(c1C)CCC(C)(CCC[C@H](C)CCC[C@H](C)CCCC(C)C)O2` (mixture of isomers) [vitamin E, alpha-tocopherol acetate], the “effect on glucose control” value [2] was “no effect”, the “effect on the lipid profile” value [2] was “no effect” and the “effect on the impairment in cholesterol efflux produced by DM in Hp 2 mice” value (J774 macrophages) was “prevented; also recorded: prevent the impairment in efflux”. For the same molecule, the “effect on the impairment in cholesterol efflux produced by DM in Hp 2 mice” value (J774 macrophages; listed as Vitamin E) was “prevent the impairment in efflux”, the “reduction in CVD events” value ([3]; DM individuals with the Hp 2-2 genotype, ICARE overall) was 50% and the “event rate (MI, stroke, CVD death)” value ([3]; Hp 2-2 DM individuals taking statins in at least eight of the twelve months before enrollment, 18 month period) was 1.3%. The “event rate (MI, stroke, CVD death)” value ([3]; Hp 2-2 DM individuals taking statins in at least one of the twelve months before enrollment) was 1.7% and the “hazard ratio [HR] versus placebo” value ([3]; Hp 2-2 DM individuals taking statins, 95% CI 0.15-0.83) was 0.31.

In the case of “glycated Hb: Human hemoglobin glycated in vitro using glycolaldehyde”, the “increase in HDL-associated lipid peroxides” value (HDL associated lipids; 20 umol/L ascorbic acid, 3 hours at 37 C, mean of 2 independent experiments) is reported as 142.3 nmol of lipid peroxide per milligram of HDL and the “reduction in HDL-mediated cholesterol efflux” value (J774 macrophage cells) is reported as 35% and 34±3%.

For `Cc1c(C)c2c(c(C)c1O)CCC(C)(CCCC(C)CCCC(C)CCCC(C)C)O2` (racemic) [all-rac-.alpha-tocopherol], the “specific activity of 1 mg” value [1] is given as 1.10 IU.

B1: Haptoglobin: Highly conserved plasma glycoprotein, the major protein that binds free hemoglobin (protein, UniProt P00738 19-406, looked up)
Haptoglobin: VDSGNDVTDIADDGCPKPPEIAHGYVEHSVRYQCKNYYKLRTEGDGVYTLNDKKQWINKAVGDKLPECEADDGCPKPPEIAHGYVEHSVRYQCKNYYKLRTEGDGVYTLNNEKQWINKAVGDKLPECEAVCGKPKNPANPVQRILGGHLDAKGSFPWQAKMVSHHNLTTGATLINEQWLLTTAKNLFLNHSENATAKDIAPTLTLYVGKKQLVEIEKVVLHPNYSQVDIGLIKLKQKVSVNERVMPICLPSKDYAEVGRVGYVSGWGRNANFKFTDHLKYVMLPVADQDQCIRHYEGSTVPEKKTPKSPVGVQPILNEHTFCAGMSKYQEDTCYGDAGSAFAVHDLEEDTWYATGILSFDKSCAVAEYGVYVKVTSIQDWVQKTIAEN
In the case of B1, the “effect on HDL-mediated efflux of 3H-cholesterol” value (J774 macrophage cells) is reported as “no effect”.
